From patent US12319659B2, “Selective ligand for dopamine D3 receptor, preparation method therefor, and pharmaceutical application thereof” (Shenzhen Linglan Bio-Pharmaceutical Technology Co., Ltd, priority 2017, dated 2025)
Structures can show the parent of a compound that is named as a salt.

target: T1, dopamine D2 receptor (Homo sapiens, UniProt P14416); experiment: Competitive inhibition test using radioligands ([3H]-sulpiride), D2 receptor; assay type: binding; settings: [3H]-sulpiride competition, HEK-293 cells; read-out: KiD2R
T1 construct: expressed in transfected cells; host or cells: Human embryonic kidney-293 cells
T1 sequence (P14416 whole entry): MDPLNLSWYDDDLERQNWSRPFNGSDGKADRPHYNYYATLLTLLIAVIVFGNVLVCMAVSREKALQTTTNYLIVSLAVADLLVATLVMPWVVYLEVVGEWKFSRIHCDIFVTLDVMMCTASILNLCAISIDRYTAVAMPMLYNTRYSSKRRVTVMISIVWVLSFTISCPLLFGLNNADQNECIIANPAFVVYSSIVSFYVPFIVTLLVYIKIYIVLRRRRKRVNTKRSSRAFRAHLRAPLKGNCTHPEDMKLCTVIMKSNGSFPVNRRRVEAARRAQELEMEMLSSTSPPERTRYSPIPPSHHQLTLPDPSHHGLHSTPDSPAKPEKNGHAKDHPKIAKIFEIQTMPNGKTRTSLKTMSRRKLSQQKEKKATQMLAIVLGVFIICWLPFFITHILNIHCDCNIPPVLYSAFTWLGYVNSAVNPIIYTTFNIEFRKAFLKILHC
Protocol: Human embryonic kidney-293 cells were cultured in fresh MEM medium containing 10% fetal bovine serum, 100 units of penicillin, and 100 μg/mL streptomycin at 37° C. under 5% CO2. Cells were transfected with DNA plasmids of dopamine D2 and D3 receptors respectively by using polyethylenimine. After transfection for 4 hours, medium was replaced with fresh MEM medium containing fetal bovine serum and the cells were further cultured for 24 hours. The cells were seeded into 24-well plates and cultured for 14-16 hours or overnight. After the medium was discarded, the cells were rinsed with pre-cooled serum-free MEM. Radioligand ([^3H]-sulpiride) and various concentrations of compounds were added into the adherent cells, and incubated in a bath at 4° C. for 150 minutes. The cells were rinsed three times with pre-cooled MEM containing 10 mM HEPES to remove unbound ligands. After the medium was completely removed, the cells were lysed with 1% sodium lauryl sulfate. The remaining radioligands were detected with a liquid scintillation counter to calculate the relative amount of bound compounds.

| SMILES | Ki [µM] |
| --- | --- |
| O=C(NCCCCN1CCN(c2ccc(Cl)cc2Cl)CC1)c1cc2ccccc2[nH]1 [31k•HCl, N-(4-(4-(2,4-dichlorophenyl)piperazin-1-yl)butyl)-1H-indole-2-carboxamide, reference compound] | > 23.9 |

same assay, conditions: […], arylpiperazine-arylurea compounds at 100 nM, [3H]-sulpiride, HEK-293 cells (Table 2); read-out: D2 Receptor Displacement (%)

| SMILES | inhibition [%] |
| --- | --- |
| O=C(NCCCCN1CCN(c2ccc(Cl)cc2)CC1)Nc1ccc2ccccc2n1 [7i•HCl, 1-(4-(4-(4-chlorophenyl)piperazin-1-yl)butyl)-3-(quinolin-2-yl)urea] | 13.4 ± 8.5 |
| O=C(NCCCCN1CCN(c2cccc(Cl)c2Cl)CC1)Nc1cnc2ccccc2c1 [8j•HCl, 1-(4-(4-(2,3-dichlorophenyl)piperazin-1-yl)butyl)-3-(quinolin-3-yl)urea] | 4.8 ± 4.3 |

same assay, conditions: […], arylpiperazine-phthalimide compounds at 100 nM, [3H]-sulpiride, HEK-293 cells (Table 1); read-out: D2 Receptor Displacement (%)

| SMILES | inhibition [%] |
| --- | --- |
| O=C1c2ccccc2C(=O)N1CCCCN1CCN(c2ccc(Cl)cc2Cl)CC1 [3k•HCl, 2-(4-(4-(2,4-dichlorophenyl)piperazin-1-yl)butyl)isoindoline-1,3-dione] | 30.2 ± 3.4 |
| O=C1c2ccccc2C(=O)N1CCCCN1CCN(c2ccccc2F)CC1 [Compound 3a, 2-(4-(4-(2-fluorophenyl)piperazin-1-yl)butyl)isoindoline-1,3-dione] | 31.8 ± 3.3 |
| O=C1c2ccccc2C(=O)N1CCCCN1CCN(c2ccc(F)cc2)CC1 [Compound 3c, 2-(4-(4-(4-fluorophenyl)piperazin-1-yl)butyl)isoindoline-1,3-dione] | -6.3 ± 4 |
| O=C1c2ccccc2C(=O)N1CCCCN1CCN(c2ccccc2Cl)CC1 [Compound 3g, 2-(4-(4-(2-chlorophenyl)piperazin-1-yl)butyl)isoindoline-1,3-dione] | 28.7 ± 3.3 |
| O=C1c2ccccc2C(=O)N1CCCCN1CCN(c2cccc(Cl)c2)CC1 [Compound 3h, 2-(4-(4-(3-chlorophenyl)piperazin-1-yl)butyl)isoindoline-1,3-dione] | 64.8 ± 3.5 |

same assay, conditions: arylpiperazine-arylurea compounds at 100 nM, [3H]-sulpiride, HEK-293 cells (Table 2)

| SMILES | D2 Receptor Displacement (%) |
| --- | --- |
| O=C(NCCCCN1CCN(c2cc(C(F)(F)F)ccc2F)CC1)Nc1cnc2ccccc2c1 [8n•HCl, 1-(4-(4-(2-fluoro-5-(trifluoromethyl)phenyl)piperazin-1-yl)butyl)-3-(quinolin-3-yl)urea] | 10.7 ± 4.0 |
| O=C(NCCCCN1CCN(c2cccc(C(F)(F)F)c2)CC1)Nc1cnc2ccccc2c1 [8p•HCl, 1-(4-(4-(3-(trifluoromethyl)phenyl)piperazin-1-yl)butyl)-3-(quinolin-3-yl)urea] | 84.1 ± 1.8 |
| O=C(NCCCCN1CCN(c2ccc(Cl)cc2)CC1)Nc1nc2ccccc2s1 [21i•HCl, 1-(benzothiazol-2-yl)-3-(4-(4-(4-chlorophenyl)piperazin-1-yl)butyl)urea] | 33.4 ± 5.9 |
| O=C(NCCCCN1CCN(c2cccc(Cl)c2Cl)CC1)Nc1nc2ccccc2s1 [21j•HCl, 1-(benzothiazol-2-yl)-3-(4-(4-(2,3-dichlorophenyl)piperazin-1-yl)butyl)urea] | 52.1 ± 2.0 |
| O=C(NCCCCN1CCN(c2ccc(Cl)cc2Cl)CC1)Nc1nc2ccccc2s1 [21k•HCl, 1-(benzothiazol-2-yl)-3-(4-(4-(2,4-dichlorophenyl)piperazin-1-yl)butyl)urea] | 19.0 ± 1.4 |

same assay, conditions: arylpiperazine-phthalimide compounds at 100 nM, [3H]-sulpiride, HEK-293 cells (Table 1)

| SMILES | D2 Receptor Displacement (%) |
| --- | --- |
| O=C1c2ccccc2C(=O)N1CCCCN1CCN(c2ccc(Cl)cc2)CC1 [3i•HCl, 2-(4-(4-(4-chlorophenyl)piperazin-1-yl)butyl)isoindoline-1,3-dione] | 16.3 ± 4.2 |
| O=C1c2ccccc2C(=O)N1CCCCN1CCN(c2cccc(C(F)(F)F)c2)CC1 [3p•HCl, 2-(4-(4-(3-(trifluoromethyl)phenyl)piperazin-1-yl)butyl)isoindoline-1,3-dione] | 37.9 ± 2.8 |
| O=C1c2ccccc2C(=O)N1CCCCN1CCN(c2ccc(F)cc2F)CC1 [Compound 3e, 2-(4-(4-(2,4-fluorophenyl)piperazin-1-yl)butyl)isoindoline-1,3-dione] | 4.8 ± 6.5 |
| O=C1c2ccccc2C(=O)N1CCCCN1CCN(c2c(F)cccc2F)CC1 [Compound 3f, 2-(4-(4-(2,6-fluorophenyl)piperazin-1-yl)butyl)isoindoline-1,3-dione] | 10.3 ± 6.1 |
